The values that follow come from ChEMBL document CHEMBL1149644, “alpha,alpha-Cyclic aminoacids as useful scaffolds for the preparation of hNK(2) receptor antagonists” (Bioorg Med Chem Lett, 2007).

Converted amounts (≈) assume the structure as drawn.

Data set [1] addresses T1, Substance-K receptor (Homo sapiens, UniProt P21452).
T1 sequence (P21452 whole entry): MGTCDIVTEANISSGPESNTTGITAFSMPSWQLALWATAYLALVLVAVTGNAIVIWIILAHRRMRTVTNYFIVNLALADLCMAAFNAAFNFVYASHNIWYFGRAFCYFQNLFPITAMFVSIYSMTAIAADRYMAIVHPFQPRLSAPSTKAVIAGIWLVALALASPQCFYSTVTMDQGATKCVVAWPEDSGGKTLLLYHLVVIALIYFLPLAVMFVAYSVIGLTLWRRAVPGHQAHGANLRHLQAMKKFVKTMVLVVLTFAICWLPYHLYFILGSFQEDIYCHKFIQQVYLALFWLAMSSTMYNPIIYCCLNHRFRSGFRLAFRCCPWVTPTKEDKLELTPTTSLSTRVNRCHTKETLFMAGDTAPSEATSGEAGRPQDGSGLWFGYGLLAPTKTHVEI
In words: Displacement of [125I]NKA from human NK2 expressed in CHO-K1 cells. Type of data set: cell-based. In general terms: Displacement assays read how much labelled ligand stays bound in the presence of the test substance.

In data set [2] the target is T2, Substance-K receptor (Cavia porcellus, UniProt Q64077).
T2 sequence (Q64077 whole entry): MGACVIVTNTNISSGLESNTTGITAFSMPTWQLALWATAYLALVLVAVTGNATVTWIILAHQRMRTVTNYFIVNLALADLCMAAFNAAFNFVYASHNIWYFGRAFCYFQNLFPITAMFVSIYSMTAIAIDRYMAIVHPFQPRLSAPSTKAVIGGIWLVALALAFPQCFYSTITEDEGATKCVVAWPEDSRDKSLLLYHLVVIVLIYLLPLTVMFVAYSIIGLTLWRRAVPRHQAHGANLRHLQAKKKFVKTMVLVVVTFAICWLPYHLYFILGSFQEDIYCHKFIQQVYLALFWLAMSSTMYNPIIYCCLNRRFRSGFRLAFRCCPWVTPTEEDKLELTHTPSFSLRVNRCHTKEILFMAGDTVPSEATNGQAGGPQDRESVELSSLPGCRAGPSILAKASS
Description: […] activity at NK2 receptor in guinea pig smooth muscle. Type of data set: functional.

Data set [3] is described as follows: Solubility at pH 7.4. The class given is physicochemical. The following applies: buffer.
A short description of data set [4]: Metabolic stability in guinea pig liver S9 fraction after 30 mins. Type of data set: ADME, subcellular, Cavia porcellus. The note with it: read-out: Stability.

Usually Ki stands for a measure of affinity in units of concentration, obtained from inhibition or displacement. Lower therefore signals tighter binding. By solubility is commonly meant the concentration that dissolves in the medium under given conditions. A high value points to much dissolved substance.

In turn, `CN1CCN(CCCNC(=O)[C@@H](Cc2ccccc2)NC(=O)C2(NC(=O)c3cc4ccccc4s3)CCCC2)CC1` had a Ki at Substance-K receptor [1] of 0.002 µM.
For `CN1CCN(CCCNC(=O)[C@@H](Cc2ccccc2)NC(=O)C2(NC(=O)c3cc4ccccc4s3)CCCCC2)CC1`, the Ki on Substance-K receptor [1] is 0.00398 µM. Compared with the last compound, the Ki is about 2-fold higher.
Consider `NCCCCCNC(=O)[C@H](Cc1ccccc1)NC(=O)C1(NC(=O)c2cc3ccccc3s2)CCCCC1`, for which, on Substance-K receptor [1], the affinity corresponds to a Ki of 0.398 µM.
On Substance-K receptor [1], `NCCOCCOCCNC(=O)[C@H](Cc1ccccc1)NC(=O)C1(NC(=O)c2cc3ccccc3s2)CCCCC1` showed a Ki of 0.0126 µM.
The compound `NCc1ccc(CNC(=O)[C@H](Cc2ccccc2)NC(=O)C2(NC(=O)c3cc4ccccc4s3)CCCCC2)cc1` showed a Ki at Substance-K receptor [1] of 0.126 µM.
The same measure, in the same setting: under `CCC(CC)(NC(=O)c1cc2ccccc2s1)C(=O)N[C@@H](Cc1ccccc1)C(=O)NCCOCCOCCN` stands over 1 µM; under `CC(C)(NC(=O)c1cc2ccccc2s1)C(=O)N[C@@H](Cc1ccccc1)C(=O)NCCOCCOCCN`, 0.1 µM; under `NCCOCCOCCNC(=O)[C@H](Cc1ccccc1)NC(=O)CNC(=O)c1cc2ccccc2s1`, over 10 µM.
In the case of `NCCCCCCNC(=O)C(Cc1ccccc1)NC(=O)C1(NC(=O)c2cc3ccccc3s2)CCCCC1` (stereo unspecified), the Ki at Substance-K receptor [1] was 0.251 µM; on Substance-K receptor [2], over 1 µM.
As for `CCN(CC)CCCNC(=O)C(Cc1ccccc1)NC(=O)C1(NC(=O)c2cc3ccccc3s2)CCCCC1` (stereo unspecified), the Ki at Substance-K receptor [1] was 0.1 µM. This lies in the sub-micromolar range.
Still for that read-out and setting: under `NCCCCCCCCNC(=O)C(Cc1ccccc1)NC(=O)C1(NC(=O)c2cc3ccccc3s2)CCCCC1` (stereo unspecified) stands 0.126 µM; under `NCCOCCOCCNC(=O)[C@H](Cc1ccccc1)NC(=O)C1(NC(=O)c2cc3ccccc3s2)Cc2ccccc2C1`, 0.02 µM.
With `CN1CCN(CCCNC(=O)[C@@H](Cc2ccccc2)NC(=O)C2(NC(=O)c3cc4ccccc4s3)Cc3ccccc3C2)CC1`, the Ki is 0.00251 µM at Substance-K receptor [1] and 0.126 µM at Substance-K receptor [2].
Regarding `CCN(CC)CCNC(=O)C(Cc1ccccc1)NC(=O)C1(NC(=O)c2cc3ccccc3s2)CCCCC1` (stereo unspecified), the affinity at Substance-K receptor [1] corresponds to a Ki of 0.1 µM.
The same measure, in the same setting: with `CN1CCN(CCCNC(=O)[C@H](Cc2ccccc2)NC(=O)C2(NC(=O)c3cc4ccccc4s3)CCCCC2)CC1` the figure was 0.1 µM.
At Substance-K receptor [2], `CCCCN(CCCC)CCCNC(=O)[C@@H](Cc1ccccc1)NC(=O)C1(NC(=O)c2cc3ccccc3s2)CCCCC1` had a Ki of 0.2 µM.
In turn, `O=C(NC1(C(=O)N[C@@H](Cc2ccccc2)C(=O)NCCCN2CCCC2)CCCCC1)c1cc2ccccc2s1` showed a Ki at Substance-K receptor [1] of 0.02 µM.
For the compound `O=C(NC1(C(=O)N[C@H](Cc2ccccc2)C(=O)NCCCN2CCCC2)CCCCC1)c1cc2ccccc2s1`, the Ki is 0.00398 µM on Substance-K receptor [1] and over 1 µM on Substance-K receptor [2].
On Substance-K receptor [1], `O=C(NC1(C(=O)NC(Cc2ccccc2)C(=O)NCCN2CCOCC2)CCCCC1)c1cc2ccccc2s1` (stereo unspecified) showed a Ki of 0.1 µM.
On the same count and under the same terms, under `CN1CCCC1CCCNC(=O)C(Cc1ccccc1)NC(=O)C1(NC(=O)c2cc3ccccc3s2)CCCCC1` (stereo unspecified) stands 0.0501 µM.
Regarding `CC(C)C[C@@H](NC(=O)[C@H](Cc1ccccc1)NC(=O)C1(NC(=O)c2cc3ccccc3s2)CCCCC1)C(N)=O`, the Ki at Substance-K receptor [1] was 0.0708 µM.
In the case of `CC(C)C[C@@H](NC(=O)[C@@H](Cc1ccccc1)NC(=O)C1(NC(=O)c2cc3ccccc3s2)CCCCC1)C(N)=O`, at Substance-K receptor [1], the affinity, expressed as Ki, was 0.0501 µM.
`O=C(NC1(C(=O)N[C@H](Cc2ccccc2)C(=O)NCCCN2CCOCC2)CCCC1)c1cc2ccccc2s1` came in with a solubility in data set [3] of 0.1 mg/mL (≈ 178 µM). Moreover, the remaining at 0.5 h in data set [4] amounted to 4%.
The compound `NCCOCCOCCNC(=O)[C@H](Cc1ccccc1)NC(=O)C1(NC(=O)c2cc3ccccc3s2)CCc2ccccc21` (stereo partly specified) showed a Ki at Substance-K receptor [1] of 0.0126 µM.
For `NCCOCCOCCNC(=O)[C@H](Cc1ccccc1)NC(=O)C1(NC(=O)c2cc3ccccc3s2)CCc2ccccc2C1` (stereo partly specified), the affinity at Substance-K receptor [1] corresponds to a Ki of 0.398 µM.
Same read-out and setting: under `CC(C)C[C@H](NC(=O)[C@H](Cc1ccccc1)NC(=O)C1(NC(=O)c2cc3ccccc3s2)CCCCC1)C(N)=O` stands 10 µM.
For `O=C(NC1(C(=O)N[C@@H](Cc2ccccc2)C(=O)NC2CC2)CCCCC1)c1cc2ccccc2s1`, on Substance-K receptor [1], the affinity, expressed as Ki, was 0.316 µM. Against the preceding compound, the Ki is about 32-fold lower.
For the compound `CN(C)CCCNC(=O)[C@H](Cc1ccccc1)NC(=O)C1(NC(=O)c2cc3ccccc3s2)CCCCC1`, the Ki on Substance-K receptor [1] is 0.316 µM.
Take `O=C(NC1(C(=O)N[C@H](Cc2ccccc2)C(=O)NCCCN2CCCC2)Cc2ccccc2C1)c1cc2ccccc2s1`: the Ki at Substance-K receptor [1] was 0.00126 µM; at Substance-K receptor [2] it was 0.2 µM.
On to `CC1CCCCN1CCCNC(=O)[C@H](Cc1ccccc1)NC(=O)C1(NC(=O)c2cc3ccccc3s2)CCCCC1` (stereo partly specified), for which the Ki on Substance-K receptor [1] was 0.00794 µM; at Substance-K receptor [2], over 3.16 µM.
For the compound `CC1CCCCN1CCCNC(=O)[C@@H](Cc1ccccc1)NC(=O)C1(NC(=O)c2cc3ccccc3s2)CCCCC1` (stereo partly specified), the figures for the Ki at Substance-K receptor [1] and at Substance-K receptor [2] were 0.000398 µM and 0.2 µM, respectively.
Regarding `CCCCN(CCCC)CCCNC(=O)[C@@H](Cc1ccccc1)NC(=O)C1(NC(=O)c2cc3ccccc3s2)Cc2ccccc2C1`, the Ki at Substance-K receptor [1] is 0.00158 µM; at Substance-K receptor [2], 0.2 µM.
The compound `CCCCN(CCCC)CCCNC(=O)[C@H](Cc1ccccc1)NC(=O)C1(NC(=O)c2cc3ccccc3s2)CCCCC1` gave a Ki at Substance-K receptor [1] of 0.00631 µM.
Take `O=C(NC1(C(=O)N[C@H](Cc2ccccc2)C(=O)NCCCN2CCOCC2)Cc2ccccc2C1)c1cc2ccccc2s1`: the Ki at Substance-K receptor [1] is 0.002 µM; on Substance-K receptor [2], 0.1 µM.
`NCCOCCOCCNC(=O)[C@H](Cc1ccccc1)NC(=O)C1(NC(=O)c2cc3ccccc3s2)CCCC1` had a Ki on Substance-K receptor [1] of 0.0501 µM. In other words, the double-digit nanomolar range.
For the compound `CC(C)N(CCNC(=O)C(Cc1ccccc1)NC(=O)C1(NC(=O)c2cc3ccccc3s2)CCCCC1)C(C)C` (stereo unspecified), the Ki at Substance-K receptor [1] was 0.0316 µM.
On Substance-K receptor [2], `O=C(NC1(C(=O)N[C@H](Cc2ccccc2)C(=O)NCCCN2CCOCC2)CCCCC1)c1cc2ccccc2s1` gave an inhibition constant (Ki) of 0.1 µM.
Compound `CCN(CC)CCCNC(=O)[C@H](Cc1ccccc1)NC(=O)C1(NC(=O)c2cc3ccccc3s2)CCCCC1` had a Ki on Substance-K receptor [1] of 0.0398 µM.
The same measure, in the same setting: with `NCCCCCCCNC(=O)C(Cc1ccccc1)NC(=O)C1(NC(=O)c2cc3ccccc3s2)CCCCC1` (stereo unspecified) the figure was 0.1 µM; with `CC(C)C[C@H](NC(=O)[C@@H](Cc1ccccc1)NC(=O)C1(NC(=O)c2cc3ccccc3s2)CCCCC1)C(N)=O`, 0.316 µM; with `O=C(NC1(C(=O)NC(Cc2ccccc2)C(=O)NCCN2CCCCC2)CCCCC1)c1cc2ccccc2s1` (stereo unspecified), 0.0631 µM.
Still for that read-out and setting: under `O=C(NC1(C(=O)N[C@@H](Cc2ccccc2)C(=O)NCCCN2CCOCC2)CCCCC1)c1cc2ccccc2s1` stands 0.0251 µM; under `CCCCN(CCCC)CCCNC(=O)[C@@H](Cc1ccccc1)NC(=O)C1(NC(=O)c2cc3ccccc3s2)CCc2ccccc21` (stereo in doubt; 45a), 0.0316 µM; under `CCCCN(CCCC)CCCNC(=O)[C@@H](Cc1ccccc1)NC(=O)C1(NC(=O)c2cc3ccccc3s2)CCc2ccccc21` (stereo in doubt; 45b), 0.00158 µM.
Same read-out and setting: with `O=C(NC1(C(=O)N[C@H](Cc2ccccc2)C(=O)NCCCN2CCCC2)CCc2ccccc21)c1cc2ccccc2s1` (stereo in doubt; 46a) the figure was 0.00631 µM; with `O=C(NC1(C(=O)N[C@H](Cc2ccccc2)C(=O)NCCCN2CCCC2)CCc2ccccc21)c1cc2ccccc2s1` (stereo in doubt; 46b), 0.00126 µM; with `O=C(NC1(C(=O)N[C@H](Cc2ccccc2)C(=O)NCCCN2CCOCC2)CCc2ccccc21)c1cc2ccccc2s1` (stereo in doubt; 47a), 0.1 µM.
As to `O=C(NC1(C(=O)N[C@H](Cc2ccccc2)C(=O)NCCCN2CCOCC2)CCc2ccccc21)c1cc2ccccc2s1` (stereo in doubt; 47b), the figures for the Ki on Substance-K receptor [1] and at Substance-K receptor [2] were 0.002 µM and 0.02 µM, respectively.
Compound `CN1CCN(CCCNC(=O)[C@@H](Cc2ccccc2)NC(=O)C2(NC(=O)c3cc4ccccc4s3)CCc3ccccc32)CC1` (stereo in doubt; 48a) had a Ki on Substance-K receptor [1] of over 0.1 µM.
With `CN1CCN(CCCNC(=O)[C@@H](Cc2ccccc2)NC(=O)C2(NC(=O)c3cc4ccccc4s3)CCc3ccccc32)CC1` (stereo in doubt; 48b), the Ki on Substance-K receptor [1] was 0.001 µM; at Substance-K receptor [2] it was 0.0251 µM.
